Source: article PMC5526551, “New hydrazonoindolin-2-ones: Synthesis, exploration of the possible anti-proliferative mechanism of action and encapsulation into PLGA microspheres” (PLoS ONE, 2017)
Like-named read-outs stand apart in the source and are kept apart here.

How the values were obtained:
[1] = tested on: IEC-6; assay: Selectivity: growth inhibition in non-tumorigenic cell line; format: cell-based; details: Rattus norvegicus, 72 h, maximum 25 μM, read-out: IC50 Intestine IEC-6
Experimental: (§1) This assessment of the growth inhibitory activity of the compounds was tested in quadruplicate at a maximum concentration of 25 μM, followed by 10 serially diluted concentrations.
A549, IEC-6, MCF-10A and 3t3 cells were harvested from 90-95% confluent cultures in 10 cm dishes, and diluted in growth media recommended by the suppliers as follows: A549 cells were cultured in RPMI-1640 medium supplemented with 5% fetal bovine serum (FBS). IEC-6 cells were obtained from ATCC and cultured in Dulbecco’s modified Eagle’s medium (DMEM) supplemented with 10% FBS and 0.1 unit/mL recombinant insulin. Swiss 3t3 cells were obtained from ATCC and cultured in DMEM supplemented with 10% FBS. […]
(§2) At the end of the treatment period, assay plates were allowed to cool to RT for 10 min prior to addition of 25 µL per well Promega CellTiterGlo reagent, followed by an additional 10 min incubation at RT. The resulting luminescence was quantitated using a Molecular Devices Spectramax Paradigm.Percent growth inhibition was calculated using equation (1). The potency of compounds was determined using the non-linear dose response algorithm (four-parameter logistic fit) with GraphPad Prism 5 software.

[2] = tested on: MCF-10A; assay: as above; format: cell-based, human; details: 72 h, maximum 25 μM, read-out: IC50 Breast MCF-10A
Experimental: as §1
A549, IEC-6, MCF-10A and 3t3 cells were harvested from 90-95% confluent cultures in 10 cm dishes, and diluted in growth media recommended by the suppliers as follows: A549 cells were cultured in RPMI-1640 medium supplemented with 5% fetal bovine serum (FBS). IEC-6 cells were obtained from ATCC and cultured in Dulbecco’s modified Eagle’s medium (DMEM) supplemented with 10% FBS and 0.1 unit/mL recombinant insulin. Swiss 3t3 cells were obtained from ATCC and cultured in DMEM supplemented with 10% FBS. MCF-10Acells were obtained from ATCC and cultured in a mixture DMEM and F12 media supplemented with 5% fetal bovine serum (FBS), 20 ng/mL recombinant epidermal growth factor, 10 µg/mL insulin, 0.5 µg/mL hydrocortisone and 100 ng/mL cholera toxin. An appropriate concentration of cells was prepared to add 1,250 cells in a volume of 25 µL per well in tissue culture treated BD 384-well microplates, then incubated overnight at 37 °C.
Compound 7e and the positive control, sunitinib, were diluted to a concentration of 25 µM in DMSO. Concentrated dosing solutions (double the final concentration) were prepared by dilution of the DMSO stocks 1:500 in growth medium. Two-fold serial dilutions were then prepared in medium containing 0.2% DMSO to maintain a constant concentration of vehicle throughout the concentration range of the compound. […]
as §2

[3] = tested on: NCI-H69AR; assay: Growth inhibition in multidrug resistant lung cancer cell line; format: cell-based; details: 72 h, maximum 25 μM
Experimental: Compound 7e was analyzed for cancer cell growth inhibitory activity in a sensitive NSCLC cell line (A549) and a multidrug resistant lung cancer cell line (NCI-H69AR) which expresses the ABCC1 efflux pump protein. This assessment of activity tested compounds in quadruplicate at a maximum concentration of 25 μM, followed by 10 serially diluted concentrations.
A549 and H69AR cells were harvested from 90-95% confluent 10 cm dishes, and diluted in growth media. An appropriate concentration of cells was prepared to add 1,250 cells in a volume of 25 µL per well in tissue culture treated BD 384-well microplates, then incubated overnight at 37 °C.
Compound 7e was diluted to a concentration of 25 µM in DMSO. Concentrated dosing solutions (double the final concentration) were prepared by dilution of the DMSO stocks 1:500 in growth medium. Two-fold serial dilutions were then prepared in medium containing 0.2% DMSO to maintain a constant concentration of vehicle throughout the concentration range of the compound. Each of these was added in equal volume (25 µL), to four wells on each cell assay plate, along with the vehicle control. The highest concentration for serial dilution of the positive control compound sunitinib was prepared exactly as the experimental compound 7e. Cells were incubated at 37°C with the compounds for a further 72 h. At the end of the treatment period, assay plates were allowed to cool to RT for 10 min prior to addition of 25 µL per well Promega CellTiterGlo reagent, followed by an additional 10 min incubation at RT. The resulting luminescence was quantitated using a Molecular Devices Spectramax Paradigm.
Percent growth inhibition was calculated using equation (1). The potency of compounds was determined using the non-linear dose response algorithm (four-parameter logistic fit) with GraphPad Prism 5 software.

[4] = In vitro 7e release (vial method, phosphate buffer pH 7.4); format: physicochemical; details: after 5 days, pH 7.4, 37°C
Experimental: In vitro7e-release: Studies on the in vitro release of 7e from microspheres were carried out using the vial method as reported by Dubey et al.. Compound 7e-PLGA-microspheres containing 5 mg equivalent of compound 7e were suspended in a vial containing phosphate buffer (10 mL, pH 7.4) with 0.3% Tween 80 to improve the solubility of 7e. The vial was incubated in a water bath at 37 ± 0.5°C and vibrated horizontally at speed of 100 rpm. In vitro 7e release was assessed by intermittently sampling the vial (2 mL) at predetermined time intervals (1, 2, 3, 4, 5, 6, 10, 12, 15, 18, 20 and 21 days), then replacing the volume with 2 mL of fresh phosphate buffer.
In vitro 7e release was assessed in phosphate buffer (pH 7.4) containing a surfactant to simulate the physiological milieu and maintain sink conditions. Samples were incubated at 37°C, and the amount of 7e was determined using a UV spectrophotometer. […] On the other hand, the release of compound 7e from the raw powder was faster than its release from the microspheres, as 65% of 7e was released after 5 days. This uncontrolled burst release of compound 7e from raw powder could result in too high local concentration which could lead to severe local tissue injure and hamper appropriate delivery to the target.

| SMILES | IC50 [1] | IC50 [2] | IC50 ([2]; Homo sapiens, MCF-10A) | IC50 [3] | IC50 ([3]; NCI-H69AR) | Cumulative in vitro release of 7e [4] | melting point |
| --- | --- | --- | --- | --- | --- | --- | --- |
| O=C1Nc2ccc(Br)cc2C1=NN=C1C(=O)N(Cc2ccccc2)c2ccccc21 [Compound 7e, 1-Benzyl-3-((5-bromo-2-oxoindolin-3-ylidene)hydrazono)indolin-2-one] | 3.72 µM | 1.75 µM | 1.76 µM | 12.7 µM | 12.7 µM | 65% | 265 to 267 °C |
| CCN(CC)CCNC(=O)c1c(C)[nH]c(/C=C2\C(=O)Nc3ccc(F)cc32)c1C [Sunitinib, sunitinib, reference compound] | 4.56 µM | – | 4.43 µM | 5.8 µM | 5.83 µM | – | – |
